Test results reported in patent publication US6103709A (priority 1998, dated 2000).

What was measured:
[1] = tested on: chloride channels in ROS 17/2.8 cells; settings: 1 nM HL in the bath; 1α,25(OH)2 D3 5 nM or less; listed as 1β,25(OH)2 D3
Description: In each case, at least a 3-min period was allowed after the addition of the analog to the bath for currents to reach a stable amplitude value. […] Anion currents were isolated from inward Ba^2+ currents after blockade of Ca^2+ channels with 100 μM Cd^2+.

rapid responses (VDRmem) = assay: Antagonist function (summary classification); settings: Yes/No, Tables 1 and 6
Description: (§1) Table 6 identifies biological properties, such as genomic response, rapid response, agonist or antagonist function, binding of the analog to the vitamin binding protein (expressed as RCI), binding to the nuclear 1α,25(OH)2 D3 receptor (expressed as RCI) rapid response (expressed as % transcaltachia the rapid hormonal stimulation of intestinal calcium absorption) the classic vitamin D responses such as intestinal Ca^2+ absorption (ICA) and bone Ca^2+ mobilizing activity (BCM) determined in vivo in a vitamin D-deficient chick, and cell differentiation (expressed as % ED50), an assessment of the ability to promote the nuclear response of cell differentiation.

VDRmem = assay: Rapid response (summary classification); settings: Yes/No, Tables 1 and 6
Description: as §1

[2] = molecular target: T1, nuclear receptor for 1α,25(OH)2 D3 [VDRnuc] (Gallus gallus, UniProt O42392); assay: Relative Competitive Index (steroid competition) assay, nuclear receptor VDRnuc; type: binding, chick; parameters: key to Nuclear 1α,25-D Receptor (RCI): % relative to 1α,25(OH)2D3 binding (RCI = 100%); settings: for Nuclear 1α,25-D Receptor (RCI): RCI of 1α,25(OH)2 D3 = 100
T1 construct: VDRnuc receptor preparation from chick intestine mucosa; from tissue; host or cells: chick intestinal mucosa
T1 sequence (O42392 1-451): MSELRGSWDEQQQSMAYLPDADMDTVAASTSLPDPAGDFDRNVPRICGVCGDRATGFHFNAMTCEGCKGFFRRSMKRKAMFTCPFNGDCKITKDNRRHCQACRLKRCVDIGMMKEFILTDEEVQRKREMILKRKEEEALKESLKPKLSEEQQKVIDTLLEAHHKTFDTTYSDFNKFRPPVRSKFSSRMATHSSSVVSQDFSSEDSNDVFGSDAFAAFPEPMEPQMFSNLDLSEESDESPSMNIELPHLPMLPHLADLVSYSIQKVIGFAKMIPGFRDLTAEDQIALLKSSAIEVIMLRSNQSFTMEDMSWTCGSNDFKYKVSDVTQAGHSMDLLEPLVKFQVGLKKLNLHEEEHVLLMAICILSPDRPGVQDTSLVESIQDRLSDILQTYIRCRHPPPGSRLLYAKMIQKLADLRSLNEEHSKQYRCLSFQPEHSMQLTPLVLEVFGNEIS
Description: The ability of analogs to mediate genomic responses are directly determined by the ability of the analog in question to bind to the nuclear receptor for 1α,25(OH)2 D3 [VDRnuc ]. This ability is detected by the assay measuring Relative Competitive Index (RCI).
The assay is based upon the principles of a steroid competition assay. A fixed amount of [^3 H]1α,25(OH)2 D3 is mixed with increasing amounts of competitive analogs or the natural hormone, 1α,25(OH)2 D3, and incubated with a VDRnuc receptor preparation from chick intestine mucosa.
Ligand Receptor Competition Assay
This example describes a ligand receptor competitive assay used for determination of an analog's relative ability to bind to VDRnuc expressed as relative competitive index (RCI).
The relative affinity of nonradioactive 1α,25(OH)2 D3 and each analog to compete with [^3 H]1α,25(OH)2 D3 for binding to the VDRnuc of NB4 cells was carried out in vitro. The NB4 cells were collected from a fast growing stage and the cellular VDRnuc of 1α,25(OH)2 D3 were extracted from KTED buffer containing 10 mM Tris-HCl, pH 7.4, 300 mM KCl, 1 mM EDTA and 5 mM DTT. After sonication, the cell extract was further centrifuged at 500× g for 10 min. The supernatant was collected for use in a ligand-receptor binding assay.
In this assay, increasing concentrations (10^-10 to 10^-6 M) of nonradioactive 1α,25(OH)2 D3 or the tested analogs were incubated with NB4 cell extracts in the presence of a fixed saturating amount of 1 pmole of [^3 H]1α,25(OH)2 D3. The reciprocal of the percentage of maximal binding of [^3 H]1α,25(OH)2 D3 was then calculated and plotted as a function of the relative analog concentration versus [^3 H]1α,25(OH)2 D3. […] The competitive index value for each analog is then normalized to the competitive index value of the […], thereby generating the value of Relative Competitive Index (RCI) where the RCI for 1α,25(OH)2 D3 is defined as 100%.
The full description of the assay is found in Methods in Enzymology: Vitamins and Co-Enzymes, Vol. 67, 494-500 , Academic Press, NY(1980); Biochem. Biophys. Res. Commun., 91: 827-834 (1979); and Endocrinology, 139(2): 457-465 (1998).

VDRnuc = assay: Genomic response (summary classification); settings: Yes/No, Tables 1 and 6
Description: as §1

HL-60 cells = assay: Cell differentiation assay (NBT reduction); type: cell-based
Description: The cell differentiation assay is used for a determination of relative potency of the analog vis-a-vis the potency of the reference compound 1α,25(OH)2 D3 in promoting the cell differentiation or inhibiting the cell proliferation. The results of the cell differentiation assay are expressed as the effective dose-50 (ED-50) which is defined as 50% of the concentration required for a maximal response.
Cell Differentiation Assay
After 4 days of culture in a humidified atmosphere of 5% CO2 in air at 37° C., the dishes were shaken to loosen any adherent cells. All cells were then assayed for differentiation by NBT reduction assay and for proliferation by [^3 H]thymidine incorporation.
Superoxide production was assayed by nitro blue tetrazolium-reducing activity as follows.
The percentage of cells containing black formazan deposits was determined using a hemacytometer.

[3] = tested on: MAP-kinase p42^mapk in NB4 cells; assay: MAP-kinase activation (p42mapk phosphorylation) in NB4 cells; type: cell-based, human
Description: In order to determine whether MAP-kinase phosphorylation is specific and is altered by 1α,25(OH)2 D3, the time-dependent effects of 1α,25(OH)2 D3 on p42^mapk phosphorylation was examined using human acute promyelocytic leukemia cells (NB4). In this study, the NB4 cells, cultured in 10% charcoal-stripped fetal calf serum (FCS) medium, were treated with 1α,25(OH)2 D3 at 10^-8 M for various time periods. Cells were then extracted and the phosphorylated MAP-kinase was immunoprecipitated with anti-phosphotyrosine antibody and further analyzed by Western blot using the antibodies against p42^mapk.
The lysate was further processed for anti-phosphotyrosine immunoprecipitation. […] After transferring the proteins to the PVDF membrane, the membrane was further incubated with primary anti-p42^mapk antibodies that were (+) or were not (-) pre-exposed to MAP-kinase peptide.
This example describes assays used for measurement of MAP-kinase activity in NB4 cells.
Cell culture of NB4 cells
The cell line is characterized by a translocation involving chromosomes 15 and 17, which is typical of the classical form of APL-M3 in the French-American-British [FAB] classification. NB4 cells were cultured in DMEM/F12 medium with 10% FCS at 5% CO2 balanced air and were routinely passaged as suspension cultures and only passages 8 to 20 were used for each assay.
Immunoprecipitation of Tyrosine-Phosphorylated Proteins
NB4 cells were cultured in 60-mm diameter dishes and treated with 1,25(OH)2 D3 or analogs in 4 ml of DMEM/F12 containing 10% charcoal-stripped FCS.
Insoluble material was removed in a microcentrifuge at 14,000 rpm for 10 min. Protein concentration was determined with a protein assay kit (Bio-Rad Lab, Hercules, Calif.). For immunoprecipitation, the supernatant was incubated with bead-conjugated monoclonal anti-phosphotyrosine antibody overnight at 4° C. The immunoprecipitates containing the tyrosine-phosphorylated proteins were washed four times with freshly-prepared RIPA buffer and further eluted with 2× Laemmli gel buffer.
At this point, the samples were either stored at -20° C. for further use or processed via Western blots. Equal loading of MAP-kinase protein was determined by running the Western blots using polyclonal anti-p42^mapk antibody. For this purpose, samples were aliquoted from each cell extract before immunoprecipitation.
SDS Gel Electrophoresis and Western blot
The membrane was further immunoblotted using a rabbit anti-p42^mapk polyclonal antibody overnight at 4° C. followed by incubation with secondary horseradish peroxidase-conjugated mouse anti-rabbit antibody for 1 hr at 25° C. The phosphorylated MAP-kinase bands were then visualized by enhanced chemiluminescence (ECL). A Ultrascan LX Laser Densitometer (LKB, Bromma, Sweden) scanned the density of the immuno-phosphoprotein bands. The results were normalized by protein loading and further plotted as percent of control of the band density.

[4] = tested on: intestinal Ca2+ transport in perfused chick duodena (transcaltachia); assay: Transcaltachia assay (rapid stimulation of 45Ca2+ transport in perfused duodena); settings: 1α,25(OH)2 D3 = 100
Description: Duodenal loops from normal, vitamin D-replete chicks were lumenally perfused with ^45 Ca^2+ (5 uCi/ml of buffer). To establish basal transport rates, celiac artery of controls were perfused with control medium for the first 20 min. The duodena were then either re-exposed to control medium containing the vehicle ethanol (0.005%, final concentration) through the celiac artery, or vascularly perfused with 300 pM or 650 pM agonist analogs JM or JN or with 650 pM of a control reference compound 1α,25(OH)2 D3. The venous effluent was collected at 2 min intervals for liquid scintillation spectrophotometry of the ^45 Ca^2+. […] Values represent mean ±SEM for n=4 in each group.
The data shown in FIG. 13 are the mean ±SEM from 4-5 duodena. […] Open circles represent the negative control receiving no treatment with 1α,25(OH)2 D3 or analog. […] Data represent the ratio of treated to basal values ±SEM extracted from a time-course plot (as in panel A) at 32 minutes.
This example describes the assay used for testing rapid response transcaltachia described in J. Biol. Chem, 268: 13811-13819 (1993).
White Leghorn cockerels (Hyline International, Lakeview, Calif.) were obtained on the day of hatch and maintained on a vitamin D-supplemented diet (1.0% calcium and 1.0% phosphorus; O. H. Kruse Grain and Milling, Ontario, Calif.) for 5-6 weeks to prepare normal vitamin D3 -replete chicks for use in the transcaltachia studies.
Measurements of ^45 Ca^2+ transport were carried out in perfused chick duodena. Normal vitamin D-replete chicks weighing approximately 500 g were anesthetized with 0.3 ml per 100 g Chloropent (Fort Dodge, Iowa), and the duodenal loop was surgically exposed. The celiac vein and blood vessels branching off from the celiac artery were ligated before cannulation of the celiac artery itself, and vascular perfusion was immediately initiated. Both the celiac artery and vein of the duodena were perfused with modified Grey's balanced salt solution (GBSS) +0.9 mM Ca which was oxygenated with 95% O2 and 5% CO2. A basal transport rate was established by perfusion with control medium for 20 minutes after the intestinal lumen was filled with ^45 Ca^2+. The tissue was then exposed to 1α,25(OH)2 D3 or analogs or reexposed to control medium for an additional 40 minutes. The vascular perfusate was collected at 2 min intervals during the last 10 min of the basal and during the entire treatment period. Duplicate 100 μl aliquots were taken for determination of the ^45 Ca^2+ levels by liquid scintillation spectrometry.

| Nuclear 1α,25-D Receptor (RCI) [2] | SMILES | Antagonist (rapid responses (VDRmem)) | Rapid Response (VDRmem) | Genomic Response (VDRnuc) | further results |
| --- | --- | --- | --- | --- | --- |
| – | C=C1/C(=C\C=C2/CCC[C@]3(C)[C@@H]([C@H](C)CCCC(C)(C)O)CC[C@@H]23)C[C@@H](O)C[C@H]1O [Analog HL, 1β,25-dihydroxyvitamin D3] | – | – | – | antagonism of 1α,25(OH)2 D3-stimulated chloride channel opening [1]: significantly reduced |
| 25 | C=C1/C(=C\C=C2/CCC[C@]3(CO)[C@@H]([C@H](C)CCCC(C)(C)O)CC[C@@H]23)C[C@@H](O)C[C@@H]1O [HS] | No | Yes | Yes | Binding to VDRnuc relative to 1α,25(OH)2 D3 (RCI) ([2]; 1α,25(OH)2 D3 = 100%, FIG. 8: chick intestine mucosa): 25%; potency at promoting cell differentiation versus 1α,25(OH)2 D3 (HL-60 cells): about twenty times more potent |
| – | CC1=C(/C=C\C2=CCC[C@]3(C)[C@@H]([C@H](C)CCCC(C)(C)O)CC[C@@H]23)C[C@@H](O)C[C@@H]1O [HF] | – | – | – | activation of MAP-kinase versus 1α,25(OH)2 D3 ([3]; 1 minute): more than 1α,25(OH)2 D3; activation of MAP-kinase versus 1α,25(OH)2 D3 ([3]; 5 minute): only slightly less active |
| – | CC1=C(/C=C/C2=CCC[C@]3(C)[C@@H]([C@H](C)CCCC(C)(C)O)CC[C@@H]23)C[C@@H](O)C[C@@H]1O [JB] | – | – | – | Rapid Trans-Caltachia, relative to 1α,25(OH)2 D3 [4]: smaller than 5% |
| 1 | C=C1/C(=C\C=C2/CCC[C@]3(C)[C@@H]([C@H](C)C#Cc4cccc(C(C)(C)O)c4)CC[C@@H]23)C[C@@H](O)C[C@@H]1O [IB] | No | Yes | Yes | – |
